# Data: patent US9969738B2, “N-acyl-(3-substituted)-5,6,7,8-tetrahydro-[1,2,4]triazolo[4,3-a]pyrazines as selective NK-3 receptor antagonists, pharmaceutical composition, methods for use in NK-3 receptor-mediated disorders” (EUROSCREEN SA, priority 2013, dated 2018)
# Assays:
# human NK-2 receptor = human NK-2 receptor (Homo sapiens (Human), UniProt P21452); test: Selectivity assay: [125I]-Neurokinin A binding to human NK-2 receptor; conditions: CHO cell membranes, 0.1 nM [125I]-Neurokinin A; read-out: hNK-2 (Ki)
# Experimental: (§1) Selectivity of the compounds of the invention was determined over the other human NK receptors, namely NK-1 and NK-2 receptors.
# The affinity of compounds of the invention for the NK-2 receptor was evaluated in CHO recombinant cells which express the human NK-2 receptor. Membrane suspensions were prepared from these cells. The following radioligand [^125I]-Neurokinin A (PerkinElmer Cat#NEX252) was used in this assay. Binding assays were performed in a 25 mM HEPES/1 mM CaCl2/5 mM MgCl2/0.5% BSA/10 μg/ml saponin, at pH 7.4. Binding assays consisted of 25 μl of membrane suspension (approximately 3.75 μg of protein/well in a 96 well plate), 50 μl of compound or reference ligand (Neurokinin A) at increasing concentrations (diluted in assay buffer) and 0.1 nM [^125I]-Neurokinin A. The plate was incubated 60 min at 25° C. in a water bath and then filtered over GF/C filters (Perkin Elmer, 6005174, presoaked in assay buffer without saponine for 2 h at room temperature) with a Filtration unit (Perkin Elmer). The radioactivity retained on the filters was measured by using the TopCount-NXT reader (Packard).
# human NK-3 receptor [1] = biological target: T1, human NK-3 receptor (Homo sapiens (Human), UniProt P29371); test: Aequorin functional assay with human NK-3 receptor (antagonist testing); format: cell-based; conditions: CHO cells expressing human NK-3 receptor and apoaequorin; agonist NKA at EC80 (3 nM); read-out: hNK-3 - AEQ (antagonist IC50)
# Experimental: Aequorin Assay with Human NK-3 Receptor
# Changes in intracellular calcium levels are a recognized indicator of G protein-coupled receptor activity. The efficacy of compounds of the invention to inhibit NKA-mediated NK-3 receptor activation was assessed by an in vitro Aequorin functional assay. Chinese Hamster Ovary recombinant cells expressing the human NK-3 receptor and a construct that encodes the photoproteinapoaequorin were used for this assay. In the presence of the cofactor coelenterazine, apoaequorin emits a measurable luminescence that is proportional to the amount of intracellular (cytoplasmic) free calcium.
# The antagonist activity of compounds of the invention is measured following pre-incubation (3 minutes) of the compound (at various concentrations) with the cells, followed by addition of the reference agonist (NKA) at a final concentration equivalent to the EC80 (3 nM) and recording of emitted light (FDSS 6000 Hamamatsu) over the subsequent 90-second period. The intensity of the emitted light is integrated using the reader software. Compound antagonist activity is measured based on the concentration-dependent inhibition of the luminescence response to the addition of Neurokinin A.
# The IC50 values shown in table 2 indicate that compounds of the invention are potent NK-3 antagonist compounds.
# [2] = Determination of plasma protein binding (rapid equilibrium dialysis); format: in vitro ADME; conditions: bound drug fraction to plasma protein; equilibrium dialysis 4 hours at 37° C.
# From the text: Determination of Plasma Protein Binding
# The pharmacokinetic and pharmacodynamic properties of chemicals/drugs are largely a function of the reversible binding of chemicals to plasma or serum proteins. […] Consequently, the extent of the plasma protein binding (PPB) of a compound influences its action as well as its distribution and elimination.
# The determination of plasma protein binding (PPB) of a compound is enabled by equilibrium dialysis, an accepted and standard method for reliable estimation of the non-bound drug fraction in plasma. RED (Rapid Equilibrium Dialysis) device insert is made of two side-by-side chambers separated by an O-ring-sealed vertical cylinder of dialysis membrane (MWCO ˜8,000). […] After 4 hours incubation at 37° C. under shaking, an aliquot is removed from each chamber and analyzed by a LC-MS/MS procedure enables the determination of both free and bound drug.
# The “free fraction” may be calculated as 100%−% rPPB (i.e. the complementary percentage of that disclosed in Table 4, corresponding to the drug concentration that is unbound and therefore available to engage biological target and elicit pharmacological activity).
# human NK-3 receptor [3] = biological target: T1, human NK-3 receptor; test: 3H-SB222200 binding competition assay with human NK-3 receptor; conditions: CHO cell membranes, 5 nM 3H-SB222200; Ki by Cheng-Prusoff; read-out: hNK-3 (Ki)
# Experimental: The affinity of compounds of the invention for the human NK-3 receptor was determined by measuring the ability of compounds of the invention to competitively and reversibly displace a well-characterized NK-3 radioligand in a concentration-dependent manner.
# ^3H-SB222200 Binding Competition Assay with Human NK-3 Receptor
# The ability of compounds of the invention to inhibit the binding of the NK-3 receptor selective antagonist ^3H-SB222200 was assessed by an in vitro radioligand binding assay. Membranes were prepared from Chinese hamster ovary recombinant cells stably expressing the human NK-3 receptor. The membranes were incubated with 5 nM ^3H-SB222200 (ARC) in a HEPES 25 mM/NaCl 0.1M/CaCl2 1 mM/MgCl2 5 mM/BSA 0.5%/Saponin 10 μg/ml buffer at pH 7.4 and various concentrations of compounds of the invention. The amount of ^3H-SB222200 bound to the receptor was determined after filtration by the quantification of membrane associated radioactivity using the TopCount-NXT reader (Packard).
# human NK-1 receptor = human NK-1 receptor (Homo sapiens (Human), UniProt P25103); test: Selectivity assay: [3H] substance P binding to human NK-1 receptor; conditions: CHO cell membranes, 2 nM [3H] substance P; read-out: hNK-1 (Ki)
# Experimental: as §1
# The affinity of compounds of the invention for the NK-1 receptor was evaluated in CHO recombinant cells which express the human NK-1 receptor. Membrane suspensions were prepared from these cells. The following radioligand: [^3H] substance P (PerkinElmer Cat#NET111520) was used in this assay. Binding assays were performed in a 50 mM Tris/5 mM MnCl2/150 mM NaCl/0.1% BSA at pH 7.4. Binding assays consisted of 25 μl of membrane suspension (approximately 5 μg of protein/well in a 96 well plate), 50 μl of compound or reference ligand (Substance P) at increasing concentrations (diluted in assay buffer) and 2 nM [^3H] substance P. The plate was incubated 60 min at 25° C. in a water bath and then filtered over GF/C filters (Perkin Elmer, 6005174, presoaked in 0.5% PEI for 2 h at room temperature) with a Filtration unit (Perkin Elmer). The radioactivity retained on the filters was measured by using the TopCount-NXT reader (Packard).
# hERG channel = hERG channel (Homo sapiens (Human), UniProt Q12809); test: hERG inhibition assay (manual patch-clamp, HEK 293 cells); format: cell-based; conditions: 5 minutes of exposure, read-out: CardioSafety (hERG IC50)
# Experimental: IKr current inhibition accounts for the vast majority of known cases of drug-induced QT-prolongation. […] Whole-cell currents (acquisition by manual patch-clamp) elicited during a voltage pulse were recorded in baseline conditions and following application of tested compounds (5 minutes of exposure). The concentrations of tested compounds (0.3 μM; 3 μM; 10 μM; 30 μM) reflect a range believed to exceed the concentrations at expected efficacy doses in preclinical models. […] The current density recorded were normalized against the baseline conditions and corrected for solvent effect and time-dependent current run-down using experimental design in test compound free conditions.
# circulating LH levels = test: Castrated male rat model, circulating levels of luteinizing hormone (LH), oral dosing; format: in vivo; conditions: castrated male SD rats, single oral dose less than or equal to 30 mg/kg, p<0.05
# Experimental: In Vivo Assay to Assess Compound Activity in Rat (Oral Dosing) The effect of compounds of the invention to inhibit luteinizing hormone (LH) secretion is determined by the following biological studies. Castrated Male Rat Model to Assess the Effect of Compound of Invention on Circulating Levels of Luteinizing Hormone (LH) In humans and rodents, castration is well-precedented to permit heightened, persistent GnRH signaling and consequent elevation of circulating LH. Thus, a castrated rat model is used to provide a broad index for measurement of LH inhibition as a marker of test compound inhibition of the GnRH signaling pathway. Castrated adult male Sprague-Dawley (SD) rats (150-175 g,) were purchased from Janvier (St Berthevin, France). All animals were housed 2 per cage in a temperature-controlled room (22±2° C.) and 50±5% relative humidity with a 12 hour/12 hour light/dark cycles (lights off at 6 h00 pm). The animals were allowed 3 weeks of postoperative recovery prior to study. Animals were handled on a daily basis. Standard diet and tap water were provided ad libitum. Animal cage litters were changed once a week. On the study day, animals were acclimated to the procedure room for a period of one hour prior to the initiation of the experiment. […] Serum LH levels were determined using radioimmunoas say kit from RIAZEN—Rat LH, Zentech (Liège, Belgium). […]
# Chain of human NK-1 receptor (P25103 whole entry): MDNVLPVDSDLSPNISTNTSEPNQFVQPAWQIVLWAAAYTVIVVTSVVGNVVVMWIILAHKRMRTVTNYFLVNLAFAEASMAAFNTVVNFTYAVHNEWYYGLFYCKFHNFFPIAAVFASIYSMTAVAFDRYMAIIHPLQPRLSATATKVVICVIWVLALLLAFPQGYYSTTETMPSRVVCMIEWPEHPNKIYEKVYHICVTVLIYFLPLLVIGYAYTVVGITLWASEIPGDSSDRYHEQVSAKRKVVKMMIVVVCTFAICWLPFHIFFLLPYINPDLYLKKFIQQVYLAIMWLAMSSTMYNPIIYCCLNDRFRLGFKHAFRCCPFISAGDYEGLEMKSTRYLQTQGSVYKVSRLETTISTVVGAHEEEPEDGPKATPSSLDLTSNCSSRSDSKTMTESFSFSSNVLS
# T1 sequence (P29371 whole entry): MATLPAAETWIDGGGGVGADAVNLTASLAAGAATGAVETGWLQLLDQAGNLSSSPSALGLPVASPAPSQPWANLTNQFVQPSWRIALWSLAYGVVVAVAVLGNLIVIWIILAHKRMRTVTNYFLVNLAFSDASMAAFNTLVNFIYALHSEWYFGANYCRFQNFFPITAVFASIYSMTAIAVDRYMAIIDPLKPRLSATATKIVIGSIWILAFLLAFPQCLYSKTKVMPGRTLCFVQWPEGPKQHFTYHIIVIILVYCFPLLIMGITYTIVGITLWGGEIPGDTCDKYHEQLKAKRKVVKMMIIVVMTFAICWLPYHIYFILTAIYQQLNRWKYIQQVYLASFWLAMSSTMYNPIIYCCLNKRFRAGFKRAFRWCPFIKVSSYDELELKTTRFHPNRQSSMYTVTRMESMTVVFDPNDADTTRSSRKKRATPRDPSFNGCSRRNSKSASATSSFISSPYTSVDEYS
# Chain of human NK-2 receptor (P21452 whole entry): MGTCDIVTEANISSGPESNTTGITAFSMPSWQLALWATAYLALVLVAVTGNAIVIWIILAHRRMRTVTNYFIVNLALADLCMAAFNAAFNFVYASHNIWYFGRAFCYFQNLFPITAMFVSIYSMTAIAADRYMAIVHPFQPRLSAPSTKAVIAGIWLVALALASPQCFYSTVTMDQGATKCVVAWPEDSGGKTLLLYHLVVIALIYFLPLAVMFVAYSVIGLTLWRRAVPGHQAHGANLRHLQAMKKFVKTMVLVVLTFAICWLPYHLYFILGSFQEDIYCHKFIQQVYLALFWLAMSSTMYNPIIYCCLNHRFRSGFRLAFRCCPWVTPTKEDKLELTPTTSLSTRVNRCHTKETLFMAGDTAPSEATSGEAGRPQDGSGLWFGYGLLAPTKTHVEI
# Chain of hERG channel (Q12809 whole entry): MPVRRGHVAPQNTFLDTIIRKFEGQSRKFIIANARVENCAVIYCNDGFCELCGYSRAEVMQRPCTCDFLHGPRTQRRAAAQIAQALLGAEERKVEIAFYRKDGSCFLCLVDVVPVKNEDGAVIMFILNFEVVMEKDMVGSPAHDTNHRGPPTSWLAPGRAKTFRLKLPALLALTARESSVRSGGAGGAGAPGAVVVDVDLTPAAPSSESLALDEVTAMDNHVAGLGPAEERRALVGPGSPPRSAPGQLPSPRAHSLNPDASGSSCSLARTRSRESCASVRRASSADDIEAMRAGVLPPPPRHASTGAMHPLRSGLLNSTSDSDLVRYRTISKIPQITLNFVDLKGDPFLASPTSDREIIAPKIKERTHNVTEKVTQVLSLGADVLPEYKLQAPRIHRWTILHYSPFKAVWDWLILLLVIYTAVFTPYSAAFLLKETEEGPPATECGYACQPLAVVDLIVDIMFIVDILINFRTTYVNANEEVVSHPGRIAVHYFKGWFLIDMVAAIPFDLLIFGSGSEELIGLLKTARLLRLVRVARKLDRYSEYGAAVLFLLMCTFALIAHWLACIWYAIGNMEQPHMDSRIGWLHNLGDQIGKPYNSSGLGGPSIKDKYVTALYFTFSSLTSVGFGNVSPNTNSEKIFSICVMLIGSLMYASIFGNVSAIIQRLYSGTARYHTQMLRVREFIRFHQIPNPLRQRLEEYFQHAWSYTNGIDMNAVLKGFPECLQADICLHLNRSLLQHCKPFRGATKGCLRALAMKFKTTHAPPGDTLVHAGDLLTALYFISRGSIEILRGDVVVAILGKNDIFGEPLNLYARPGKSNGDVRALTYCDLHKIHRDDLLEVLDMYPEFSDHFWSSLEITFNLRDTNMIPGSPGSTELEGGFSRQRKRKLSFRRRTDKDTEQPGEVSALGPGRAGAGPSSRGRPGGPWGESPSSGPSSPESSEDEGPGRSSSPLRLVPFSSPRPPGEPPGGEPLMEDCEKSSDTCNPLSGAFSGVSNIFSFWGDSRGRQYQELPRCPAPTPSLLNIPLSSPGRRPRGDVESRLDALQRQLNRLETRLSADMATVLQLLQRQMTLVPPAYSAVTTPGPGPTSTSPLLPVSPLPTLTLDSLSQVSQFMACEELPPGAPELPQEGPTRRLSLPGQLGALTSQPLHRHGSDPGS
Ki (human NK-2 receptor),IC50 (human NK-3 receptor [1]),Exposure (% rPPB) [2],Ki (human NK-3 receptor [3]),Ki (human NK-1 receptor),SMILES,IC50 (hERG channel),suppression of circulating LH levels (circulating LH levels)
> 30000 nM,470 nM,25%,240 nM,> 30000 nM,"Cc1nsc(-c2nnc3n2CCN(C(=O)c2ccc(F)c(F)c2F)C3)n1 [Compound 7, (3-(3-methyl-1,2,4-thiadiazol-5-yl)-5,6-dihydro-[1,2,4]triazolo[4,3-a]pyrazin-7(8H)-yl)(2,3,4-trifluorophenyl)methanone]",–,–
> 30000 nM,250 nM,28%,170 nM,> 30000 nM,"Cc1nsc(-c2nnc3n2CCN(C(=O)c2ccc(F)c(F)c2)C3)n1 [Compound 5, (3,4-difluorophenyl)(3-(3-methyl-1,2,4-thiadiazol-5-yl)-5,6-dihydro-[1,2,4]triazol[4,3-a]pyrazin-7(8H)-yl)methanone]",–,–
> 30000 nM,200 nM,52%,130 nM,> 30000 nM,"Cc1nsc(-c2nnc3n2CCN(C(=O)c2ccc(F)c(Cl)c2)C3)n1 [Compound 4, (3-chloro-4-fluorophenyl)(3-(3-methyl-1,2,4-thiadiazol-5-yl)-5,6-dihydro-[1,2,4]triazol[4,3-a]pyrazin-7(8H)-yl)methanone]",–,–
> 30000 nM,330 nM,27%,170 nM,> 30000 nM,"Cc1nsc(-c2nnc3n2CCN(C(=O)c2cc(F)c(F)c(F)c2)C3)n1 [Compound 6, (3-(3-methyl-1,2,4-thiadiazol-5-yl)-5,6-dihydro-[1,2,4]triazolo[4,3-a]pyrazin-7(8H)-yl)(3,4,5-trifluorophenyl)methanone]",–,–

# Further lines, the molecule ahead of its results:
SMILES,Ki (human NK-2 receptor),IC50 (human NK-3 receptor [1]),Exposure (% rPPB) [2],Ki (human NK-3 receptor [3]),Ki (human NK-1 receptor),IC50 (hERG channel),suppression of circulating LH levels (circulating LH levels)
"Cc1nsc(-c2nnc3n2CCN(C(=O)c2ccc(Cl)cc2)C3)n1 [Compound 2, (4-chlorophenyl)(3-(3-methyl-1,2,4-thiadiazol-5-yl)-5,6-dihydro-[1,2,4]triazol[4,3-a]pyrazin-7(8H)-yl)methanone]",> 30000 nM,140 nM,49%,99 nM,> 30000 nM,35000 nM,–
"Cc1nsc(-c2nnc3n2CCN(C(=O)c2ccc(Cl)c(F)c2)C3)n1 [Compound 3, (4-chloro-3-fluorophenyl)(3-(3-methyl-1,2,4-thiadiazol-5-yl)-5,6-dihydro-[1,2,4]triazol[4,3-a]pyrazin-7(8H)-yl)methanone]",> 30000 nM,140 nM,54%,93 nM,> 30000 nM,–,–
"Cc1nsc(-c2nnc3n2CCN(C(=O)c2ccc(F)cc2)C3)n1 [Compound 1, (4-fluorophenyl)(3-(3-methyl-1,2,4-thiadiazol-5-yl)-5,6-dihydro-[1,2,4]triazolo[4,3-a]pyrazin-7(8H)-yl)methanone]",> 30000 nM,180 nM,–,140 nM,> 30000 nM,–,significantly suppressed circulating LH levels
